One experiment concerns CPT-1a and CPT-1b. The following applies: upon enzymatic conversion to etomoxiryl CoA; cited from earlier work.
The test system of experiment [1] is BMDMs. Nature of the experiment: ADP- or FCCP-stimulated respiration in permeabilized WT, Cpt1a-/- and Cpt2-/- BMDMs. The class given is cell-based, mouse. The following applies: 200 μM etomoxir; independent of CPT-1 activity; also stated for Treg cells.
The target in experiment [2] is T1, CPT-1 (Homo sapiens, UniProt P50416).
T1 sequence (P50416 1-773): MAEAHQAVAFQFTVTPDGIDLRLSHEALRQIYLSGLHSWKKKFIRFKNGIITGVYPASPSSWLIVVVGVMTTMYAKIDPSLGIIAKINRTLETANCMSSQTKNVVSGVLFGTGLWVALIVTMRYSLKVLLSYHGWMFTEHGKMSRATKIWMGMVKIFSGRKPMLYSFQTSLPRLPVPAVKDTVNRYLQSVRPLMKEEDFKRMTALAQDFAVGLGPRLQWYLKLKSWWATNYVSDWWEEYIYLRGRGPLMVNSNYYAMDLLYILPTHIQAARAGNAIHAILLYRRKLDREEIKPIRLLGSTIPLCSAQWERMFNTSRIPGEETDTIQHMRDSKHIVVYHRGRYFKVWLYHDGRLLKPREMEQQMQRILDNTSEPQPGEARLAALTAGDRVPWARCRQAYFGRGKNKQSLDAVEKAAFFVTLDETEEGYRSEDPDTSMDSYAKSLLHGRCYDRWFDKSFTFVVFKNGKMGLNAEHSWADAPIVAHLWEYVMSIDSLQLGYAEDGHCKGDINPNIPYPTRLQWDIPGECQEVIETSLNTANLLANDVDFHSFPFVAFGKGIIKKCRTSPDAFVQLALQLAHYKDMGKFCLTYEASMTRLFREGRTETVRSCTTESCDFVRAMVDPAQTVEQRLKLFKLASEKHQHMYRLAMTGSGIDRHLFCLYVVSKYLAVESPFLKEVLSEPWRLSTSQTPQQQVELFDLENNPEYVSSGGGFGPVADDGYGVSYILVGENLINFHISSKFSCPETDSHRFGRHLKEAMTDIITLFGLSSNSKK
Kind of experiment: Palmitoyl CoA-driven respiration in permeabilized A549 cells. The class given is cell-based. Also on record: endogenous in cells; host or cells: A549 (A6).

Experiment [3] relates to A549, HCT116, cortical neurons, cortical astrocytes, BMDM, NRVM. Kind of experiment: Respiration in intact cells offered glucose, glutamine, pyruvate (six cell types). The class given is cell-based. The protocol:
(§1) All respirometry studies were conducted in either a Seahorse XF96 or XFe96 Analyzer. All experiments were conducted at 37° C., and at pH 7.4 (intact cells) or 7.2 (permeabilized cells and isolated mitochondria). Calculation of respiratory parameters was made according to standard protocols (Divakaruni, A. S., Paradyse, A., Ferrick, D. A., Murphy, A. N., and Jastroch, M. (2014a) Analysis and interpretation of microplate-based oxygen consumption and pH data. Meth. Enzym 547, 509-54), and all rates were corrected for non-mitochondrial respiration/background signal by subtracting the oxygen consumption rate insensitive to rotenone plus antimycin A.
When diagnosing an off-target effect of etomoxir (FIG. 5A, FIG. 5B, FIG. 5C), all cells apart from primary neurons were offered 8 mM glucose, 2 mM glutamine, and 2 mM pyruvate in unbuffered DMEM supplemented with 5 mM HEPES. […] Respiration in all intact cells was measured in the basal state as well as in response to 2 μM oligomycin, FCCP (either 400 nM, 800 nM or 1.2 μM as appropriate and previously optimized), and 0.2 μM rotenone with 1 μM antimycin A. Etomoxir (at concentrations indicated in the text), UK5099 (3 μM), or BPTES (3 μM) were added to the assay medium 30 min prior to measurements.

Experiment [4] has as its target T1, CPT-1. Kind of experiment: Palmitoyl CoA-driven respiration in permeabilized HepG2 cells. Type of experiment: cell-based. On the set-up: endogenous in cells; host or cells: HepG2 (A5).
Experiment [5] relates to permeabilized HepG2 or A549 cells. Nature of the experiment: ADP- vs FCCP-stimulated respiration in permeabilized cells, etomoxir added directly. Type of experiment: cell-based. Conditions: high concentrations of etomoxir.
The next experiment concerns 3T3-L1 adipocytes. Nature of the experiment: Maximal respiration in 3T3-L1 adipocytes (positive control). The class given is cell-based. The following applies: 3 μM etomoxir. The protocol: as §1
Detailed description of FIG. 5. (FIG. 5A) Maximal FCCP-stimulated respiration in response to 3 μM etomoxir in six cell types (experimental conditions in Materials and Methods). […] (n≥3 independent biological replicates). (FIG. 5B) (Left) Maximal respiration in HepG2 cells offered 8 mM glucose, 2 mM glutamine, and 2 mM pyruvate in the experimental medium with BPTES and UK5099 (both at 3 μM)±3 μM etomoxir. (n=4 independent biological replicates). (Right) Maximal respiration in 3T3-L1 adipocytes offered 1 mM glucose and 0.5 mM carnitine in the experimental medium with increasing concentrations of etomoxir. (n=3 independent biological replicates). […]

Experiment [6] has as its system BMDMs. Conditions: concentrations as high as 100 μM etomoxir; cited from earlier work.

Structures are written as SMILES.

In general, IC50 refers to the concentration at which inhibition is half-maximal. For the compound `CCOC(=O)[C@@]1(CCCCCCOc2ccc(Cl)cc2)CO1` [etomoxir], the IC50 in the experiment with CPT-1a and CPT-1b is 10 to 700 nM. Besides, the “phosphorylating and uncoupled respiration” value in the experiment with BMDMs [1] was “pronounced off-target effect on phosphorylating respiration with a secondary effect at uncoupled respiration”. Also, on CPT-1 [2], the “EC50, FCCP-stimulated palmitoyl CoA-driven respiration” value is listed as “nanomolar” and the “concentration of saturable effect” value is “less than 3 μM”. Besides, the maximal respiratory rate entry in experiment [3] (3 μM etomoxir, no fatty acids or carnitine) is listed as “did not inhibit respiration”. For the same compound, the “ATP-linked vs uncoupler-stimulated respiration” value in experiment [3] (increasing, high concentrations of etomoxir) is reported as “disproportionately inhibited ATP-linked respiration relative to uncoupler-stimulated respiration”. For the same compound, at CPT-1 [4], the “EC50, FCCP-stimulated palmitoyl CoA-driven respiration” value was “nanomolar” and the “concentration of saturable effect” value was “less than 3 μM”. In addition, the “respiration driven by ADP versus FCCP” value in experiment [5] is recorded as “greater inhibitory effect on respiration driven by ADP versus FCCP”. Besides, the respiration result with 3T3-L1 adipocytes is reported as “sufficient to inhibit respiration”. Further, the “respiration in BMDMs” value in the experiment with BMDMs [6] is given as “lack of significant changes in respiration”.

Values taken from patent US11813277B2, “Methods and agents for modulating inflammation” (The Regents of the University of California, priority 2018, dated 2023).
